Laboratory results published in patent US20110082074A1, “AGENT FOR PREVENTING PERIODONTAL DISEASE” (priority 2009, published 2011).
“Also recorded” adds a separate entry of the source.

Legend:
[1] = test system: binding between gingival cells and FimA II; assay: Effect of monosaccharide on binding inhibitory effect: labeled test cells bound to immobilized FimA II-His; format: cell-based, Porphyromonas gingivalis; conditions: monosaccharide final concentration 50 μg/ml with 10 μl RGD peptide−SBA beads; FIG. 6
Method: FimA II-His (10 μg/ml) was immobilized onto a 96-well plate, and test cells that had been fluorescently labeled with CellTracker Green CMFDA (Invitrogen) were bound thereto in an amount of 1×10^6 cells.
SBA beads, RGD peptide, or RGD peptide−SBA beads were allowed to coexist in the wells in an amount of 10 μl, and the plate was shaken. In addition to the RGD peptide−SBA beads, glucose or N-acetylgalactosamine (GalNAc) was allowed to coexist therewith in a final concentration of 50 μg/ml. For comparison, wells of a 96-well plate in which no beads were present and only N-acetylgalactosamine was present in a final concentration of 50 μg/ml were also prepared.
(§1) The 96-well plate was filled with PBS. After unbound cells were removed, bound cells were detected using a fluorescent plate reader.

[2] = test system: P. gingivalis carrying type II FimA fimbrial protein; assay: Binding Inhibitory Experiment 3: fluorescently labeled P. gingivalis bound to seeded test cells; format: cell-based, Porphyromonas gingivalis; conditions: 30 μl beads, 10 μl P. gingivalis, room temperature 10 minutes; FIG. 4
Method: Test cells were seeded into a 96-well plate in an amount of 5×10^5 cells. The next day, 10 μl of P. gingivalis carrying FimA type II fimbrial protein was allowed to bind, and 30 μl each of SBA beads, RGD peptide−SBA beads, and fibronectin−SBA beads were added. The plate was shaken at room temperature for 10 minutes.
The 96-well plate was gently washed. Fluorescently labeled P. gingivalis carrying type II FimA fimbrial protein bound to the cells was detected using a fluorescence detector. P. gingivalis was fluorescently labeled by using an FITC Labeling Kit (manufactured by Kirkegaard & Perry Laboratories, Inc.) after P. gingivalis was immobilized with formalin.

TGF-β = assay: Confirmation of cytokine production: TGF-β produced by Ca9-22 cells; format: cell-based; conditions: 30 μl beads, FIG. 7
Method: Ca9-22 cells were seeded into a 96-well plate in an amount of 5×10^5 cells. The next day, (1) a lipopolysaccharide (hereinafter also referred to as “LPS”; 10 ng/ml), (2) TNF-α(10 ng/ml), (3) P. gingivalis carrying FimA type II fimbrial protein (5 μl), or (4) FimA II-GST (10 μg/ml) was added as a reagent. The parenthesized numerals in the above sentence indicate the final concentrations in the media containing the reagents to 50 μl of the medium.
SBA beads, RGD peptide−SBA beads, or fibronectin−SBA beads were allowed to coexist therewith in an amount of 30 μl, and the plate was rocked. The amount of TGF-β produced was then measured.

[3] = target: T1, binding of type II FimA protein to α5β1 integrin expression cells (Homo sapiens, UniProt P05556+P08648); assay: Binding Inhibitory Experiment 2: fluorescently labeled test cells bound to immobilized FimA II-His; format: cell-based, Porphyromonas gingivalis; conditions: 50 μl beads, compared to fibronectin or RGD peptide alone, FIG. 3
T1 construct: expressed in transfected cells; host or cells: CHO (CHO-VLA5)
Method: (§2) CHO cells on which α5β1 integrin was forcedly expressed by introducing a gene encoding α5β1 integrin (hereinafter sometimes referred to as “CHO-VLA5”), and gingival cells were used in the Binding Inhibitory Experiments described below. As the gingival cells, three types of cells, GE1, Ca9-22 and Sa3, were used. As a control, CHO cells into which α5β1 integrin was not introduced were used. GE1, Ca9-22, and Sa3 were obtained from ATCC (American Type Culture Collection).
FimA II-His (10 μg/(ml)) was immobilized onto a 96-well plate, and test cells that had been fluorescently labeled with CellTracker Green CMFDA (available from Invitrogen) were added in an amount of 1×10^6 cells and allowed to bind.
50 μl of SBA beads, RGD peptide−SBA beads, or fibronectin−SBA beads were allowed to coexist in each well, and the plate was shaken. For comparison, an experiment in which an RGD peptide or fibronectin was allowed to coexist was performed in a similar manner.
Each well of the 96-well plates was filled with serum-free Dulbecco's modified Eagle's medium (hereinafter referred to as DMEM) or with PBS, and covered with a Parafilm to prevent air from entering. The plate was turned upside-down and allowed to stand for 5 minutes. After removing the Parafilm, a supernatant containing unbound cells was removed, and bound cells were detected using a fluorescent plate reader.

[4] = target: T2, α5β1 integrin expressing cells (Homo sapiens, UniProt P05556+P08648); assay: Binding ratio of RGD peptide or fibronectin to SBA beads, FimA II-His binding inhibitory experiment; format: cell-based; conditions: RGD peptide bound in an amount of 10 to 30 μg per 100 μg of SBA beads
T2 construct: expressed in transfected cells; host or cells: CHO (CHO-VLA5)
Method: Another experiment was performed using α5β1 integrin expressing cells in a manner similar to the FimA II-His tag protein binding inhibitory experiment described above, to investigate the binding ratio of RGD peptide or fibronectin to SBA beads.

[5] = target: T3, binding of FimA type II fimbrial protein to α5β1 integrin expression cells (Homo sapiens, UniProt P05556+P08648); assay: Binding Inhibitory Experiment 1: FimA II-His bound to seeded test cells, detected by ELISA; format: cell-based, Porphyromonas gingivalis; conditions: cells immobilized; 10 μl beads; about 30 μM RGD peptide or fibronectin, about 100 μM SBA; compared to fibronectin or RGD peptide alone; FIG. 2
T3 construct: expressed in transfected cells; host or cells: CHO (CHO-VLA5)
Method: as §2
Test cells were seeded into a 96-well plate in an amount of 5×10^5 cells. Subsequently, 50 μl of FimA II-His (10 μg/ml) was allowed to bind to the cells, and 10 μl of SBA beads, RGD peptide−SBA beads, or fibronectin−SBA beads were allowed to coexist. The plate was shaken at room temperature for 10 minutes. For comparison, an experiment in which an RGD peptide or fibronectin was allowed to coexist was performed in a similar manner. […]
After the 96-well plate was gently washed, FimA II-His bound to the cells was detected by ELISA using an anti-His tag antibody (Cat. No. 71554-3; available from Novagen).
The fibronectin−SBA bead solution contained about 30 μM of fibronectin and about 100 μM of SBA, whereas the solution containing only fibronectin contained about 30 μM of fibronectin. These values were calculated by measuring the amount of each protein not bound to the beads during the production. […]

[6] = test system: TNFRI (TNF-α Receptor Type I); assay: TNFRI phosphorylation by western blotting in test cells treated with P. gingivalis; format: cell-based; conditions: test cells with P. gingivalis carrying type II FimA fimbrial protein (10 μl), 30 μl beads, FIG. 8
Method: Test cells were seeded into a 96-well plate in an amount of 5×10^5 cells. The next day, each well was washed with DMEM, and then P. gingivalis carrying type II FimA fimbrial protein (10 μl) was added as a reagent. The numerical value in the parentheses indicates the final concentration in the medium containing the reagent.
SBA beads, RGD peptide−SBA beads, or fibronectin−SBA beads were allowed to coexist therewith in an amount of 30 μl, and the plate was shaken. After each plate was washed well with PBS, cells were dissolved in 1% NP-40, and subjected to western blotting using an anti-TNFRI antibody, anti-tyrosine phosphorylation antibody, and anti-actin antibody.

[7] = test system: interaction between gingival cells and FimA II; assay: Comparison with other lectins: labeled test cells bound to immobilized FimA II-His; format: cell-based, Porphyromonas gingivalis; conditions: 10 μL beads; SBA compared to WGA (wheat germ lectin); FIG. 5
Method: FimA II-His (10 μg/ml) was immobilized onto a 96-well plate, and test cells that had been fluorescently labeled with CellTracker Green CMFDA (manufactured by Invitrogen) were bound in an amount of 1×10^6 cells.
Subsequently, 10 μL of SBA beads, RGD peptides, RGD peptide−SBA beads, WGA beads, or RGD peptide-WGA beads were allowed to coexist, and the plate was shaken.
The WGA beads are beads prepared in the same manner as in the production of SBA beads described above in Item 1, except for using WGA in place of SBA. The RGD peptide-WGA beads are beads prepared in the same manner as in the production of RGD peptide−SBA beads described above in Item 2, except for using WGA in place of SBA.
as §1

[8] = Ca9-22 cells treated with LPS 10 ng/ml
[9] = Ca9-22 cells treated with TNF-α 10 ng/ml
[10] = Ca9-22 cells with FimA II-GST 10 μg/ml
[11] = Ca9-22 cells with P. gingivalis carrying FimA type II fimbrial protein (5 μl)

T1 sequence (P08648 42-894 limits assumed): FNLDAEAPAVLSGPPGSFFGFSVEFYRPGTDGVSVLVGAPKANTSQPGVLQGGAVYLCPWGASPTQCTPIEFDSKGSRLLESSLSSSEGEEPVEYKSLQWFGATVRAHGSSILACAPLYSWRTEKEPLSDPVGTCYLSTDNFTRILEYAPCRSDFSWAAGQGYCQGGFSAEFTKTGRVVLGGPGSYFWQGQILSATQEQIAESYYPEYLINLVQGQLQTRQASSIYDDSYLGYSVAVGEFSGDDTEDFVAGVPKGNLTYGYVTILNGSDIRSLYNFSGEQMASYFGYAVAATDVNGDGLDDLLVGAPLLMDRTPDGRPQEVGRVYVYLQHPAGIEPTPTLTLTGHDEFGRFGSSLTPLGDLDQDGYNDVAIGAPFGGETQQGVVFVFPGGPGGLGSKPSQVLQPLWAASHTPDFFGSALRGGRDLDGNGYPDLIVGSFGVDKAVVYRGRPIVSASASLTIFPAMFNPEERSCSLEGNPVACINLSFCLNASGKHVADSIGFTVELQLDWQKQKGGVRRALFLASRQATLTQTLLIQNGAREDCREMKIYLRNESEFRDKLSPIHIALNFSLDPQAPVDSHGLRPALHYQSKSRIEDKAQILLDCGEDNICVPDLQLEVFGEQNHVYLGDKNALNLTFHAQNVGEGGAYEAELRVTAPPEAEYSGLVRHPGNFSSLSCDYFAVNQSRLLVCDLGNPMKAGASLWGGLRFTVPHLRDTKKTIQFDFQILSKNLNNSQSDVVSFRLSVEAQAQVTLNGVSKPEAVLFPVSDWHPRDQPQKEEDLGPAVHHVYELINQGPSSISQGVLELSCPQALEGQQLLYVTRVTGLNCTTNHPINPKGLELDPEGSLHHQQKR
T1 sequence (P08648 895-1049 limits assumed): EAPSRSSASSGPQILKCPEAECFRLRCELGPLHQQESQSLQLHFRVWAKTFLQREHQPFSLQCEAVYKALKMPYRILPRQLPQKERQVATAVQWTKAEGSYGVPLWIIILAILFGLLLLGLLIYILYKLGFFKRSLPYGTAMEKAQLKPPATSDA
T1 sequence (P05556 21-798): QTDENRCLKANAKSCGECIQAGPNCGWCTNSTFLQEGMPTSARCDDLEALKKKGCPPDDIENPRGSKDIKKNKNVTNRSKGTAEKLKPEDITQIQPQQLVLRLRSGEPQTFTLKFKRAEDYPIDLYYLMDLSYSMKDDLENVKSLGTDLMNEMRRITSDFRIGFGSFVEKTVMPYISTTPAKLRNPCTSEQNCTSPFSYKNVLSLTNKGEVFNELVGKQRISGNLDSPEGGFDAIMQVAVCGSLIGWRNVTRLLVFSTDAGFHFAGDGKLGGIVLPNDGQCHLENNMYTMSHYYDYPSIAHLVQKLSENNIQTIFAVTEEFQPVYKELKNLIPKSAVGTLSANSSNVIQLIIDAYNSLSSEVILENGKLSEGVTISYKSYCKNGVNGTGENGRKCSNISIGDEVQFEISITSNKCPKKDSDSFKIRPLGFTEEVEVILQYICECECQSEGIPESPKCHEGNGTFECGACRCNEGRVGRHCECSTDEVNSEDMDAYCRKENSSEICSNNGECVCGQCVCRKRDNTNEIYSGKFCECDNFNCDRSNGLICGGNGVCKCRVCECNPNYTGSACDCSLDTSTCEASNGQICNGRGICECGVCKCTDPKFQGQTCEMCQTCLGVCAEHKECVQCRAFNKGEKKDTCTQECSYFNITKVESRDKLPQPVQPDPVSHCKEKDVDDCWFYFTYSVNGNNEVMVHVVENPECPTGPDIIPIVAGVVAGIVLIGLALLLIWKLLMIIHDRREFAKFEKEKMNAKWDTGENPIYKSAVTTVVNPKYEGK
T3 sequence (P08648 42-894 limits assumed): as the sequence (P08648 42-894 limits assumed) above
T3 sequence (P08648 895-1049 limits assumed): as the sequence (P08648 895-1049 limits assumed) above
T3 sequence (P05556 21-798): as the sequence (P05556 21-798) above
T2 sequence (P08648 42-894 limits assumed): as the sequence (P08648 42-894 limits assumed) above
T2 sequence (P08648 895-1049 limits assumed): as the sequence (P08648 895-1049 limits assumed) above
T2 sequence (P05556 21-798): as the sequence (P05556 21-798) above

Molecule	effect of coexisting monosaccharide on the RGD peptide−SBA binding inhibitory effect [1]	inhibition of binding of P. gingivalis carrying type II FimA fimbrial protein to gingival cells [2]	production of TGF-β (TGF-β; [8])	production of TGF-β (TGF-β; [9])	production of TGF-β (TGF-β; [10])	production of TGF-β (TGF-β; [11])	inhibition of binding of type II FimA protein to α5β1 integrin expression cells [3]	binding inhibition depending on binding ratio of RGD peptide to SBA beads [4]	inhibition of binding of FimA type II fimbrial protein to α5β1 integrin expression cells [5]	phosphorylated tyrosine of the activation receptor (TNFRI) [6]	inhibition of the interaction between gingival cells and FimA II [7]
CC(=O)N[C@H]1C(O)O[C@H](CO)[C@H](O)[C@@H]1O (stereo partly shown) [N-acetylgalactosamine]	did so	–	–	–	–	–	–	–	–	–	–
RGD peptide−SBA beads: beads in which SBA beads and RGD-peptide (SEQ ID NO: 3, RGDSPASSKP) are bound	–	inhibited; also recorded: remarkably high binding inhibitory effect	production of TGF-β was observed	production of TGF-β was observed	production of TGF-β was inhibited	production of TGF-β was inhibited	significantly inhibited; also recorded: higher than that of fibronectin−SBA beads	inhibited binding most effectively	significantly inhibited	not detected	–
SBA beads: conjugate of soybean lectin and NHS-activated Sepharose beads	–	slightly inhibited binding	production of TGF-β was observed	production of TGF-β was observed	production of TGF-β was detected	production of TGF-β was detected	–	–	–	–	–
SBA: soybean lectin (soybean agglutinin), mucin-type sugar chain-binding lectin; tested bound to beads	–	–	–	–	–	–	–	–	–	–	more potently inhibits
